# Laboratory results reported in patent publication US20110072525A1, “COMPOSITIONS AND METHODS FOR THE TREATMENT OF PSYCHIATRIC AND NEUROLOGICAL DISORDERS” (priority 2009, published 2011).
# Tested on: wild type C57BL6 mice
# Assay: Prepulse inhibition (PPI) of the acoustic startle response, control experiment
# Type: in vivo
# Settings: wild type C57BL6 mice injected with MK-801 1 mg/kg; same PPI protocol; data not shown
# Experimental: Prepulse inhibition (PPI) of the acoustic startle response. Prepulse inhibition (PPI) of the acoustic startle response was measured as described previously with some minor modifications (E. S. Emamian et al., 2004b). Adult homozygous mutant mice and their wild-type littermates were housed individually for 2 weeks prior to testing. Testing was conducted in a SR-Lab system (San Diego Instruments). Response amplitude was calculated as the maximum response level occurred during the 100 ms recording. Because animals can habituate to the prepulse, and to the startle stimulus, the number of trials was kept to minimum. Immediately after being placed in the chamber, the animal was allowed to acclimate for 5 min which background noise (86 dB) continually present. The animal then received 10 sets of the following 5 types of trials, distributed pseudo-randomly, and separated by 15 sec inter-trial intervals: Trial 1: 40 ms, 120 dB noise burst alone; Trial 2-4: 120 dB startle stimuli preceded 100 ms by one of the three 20 ms prepulses: 90 dB, 94 dB or 98 dB; Trial 5: no-stimulus/background noise alone (86 dB). […] Data was analyzed using ANOVA with repeated measures.
compound,measurement,value
C[C@]12N[C@H](Cc3ccccc31)c1ccccc12 [MK-801],Prepulse inhibition (PPI) of the acoustic startle response,significant decrease in PPI
